Assay results: ChEMBL document CHEMBL1201862, “PubChem BioAssay data set” (2004)
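1) Cells in 96-well plates. 2) Compound, 48 h, 5 concentrations. 3) Linear interpolation between surrounding doses. 4) Unreached endpoint = highest concentration. GI50 is the concentration that inhibits growth by half.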 Activity calls are given as the source filed them. Rule as the data show it: active = GI50 up to about 1.1 µM and inactive = higher.

What was measured:
Assay in all cases: inhibition of tumour cell growth, NCI panel, 48 h
A549 = test system: A549
CAKI-1 = test system: CAKI-1
CCRF-CEM = test system: CCRF-CEM
HOP-62 = test system: HOP-62
K562 = test system: K562
KM12 = test system: KM12
NCI-H23 = test system: NCI-H23
NCI-H460 = test system: NCI-H460
NCI-H522 = test system: NCI-H522
OVCAR-4 = test system: OVCAR-4
RPMI-8226 = test system: RPMI-8226
SK-MEL-28 = test system: SK-MEL-28
TK-10 = test system: TK-10
U-251 = test system: U-251
A498 = test system: A498
SNB-19 = test system: SNB-19

Measured: GI50

Oc1cc(-c2ccccc2)c2ccccc2n1
inactive: A549 34.4 µM | CAKI-1 13.4 µM | CCRF-CEM 60.8 µM | HOP-62 28.2 µM | K562 65.5 µM | KM12 71.4 µM | NCI-H23 84.7 µM | NCI-H460 41.9 µM | NCI-H522 20.9 µM | OVCAR-4 73.6 µM | RPMI-8226 67.6 µM | SK-MEL-28 37.3 µM | TK-10 38.6 µM | U-251 69.5 µM

CCOC(=O)NN(C(=O)OCC)C(C(=O)c1ccc(Cl)cc1)=C1NCCN1
inactive: A498 > 100 µM | A549 > 100 µM | CAKI-1 > 100 µM | CCRF-CEM > 100 µM | HOP-62 > 100 µM | K562 > 100 µM | KM12 > 100 µM | NCI-H23 > 100 µM | NCI-H460 > 100 µM | NCI-H522 > 100 µM | OVCAR-4 > 100 µM | SK-MEL-28 > 100 µM | SNB-19 > 100 µM | TK-10 > 100 µM | U-251 > 100 µM

Cc1ccc(C)c2sc3cc(=O)ccc-3nc12
inactive: A549 41.2 µM | CAKI-1 22 µM | CCRF-CEM 14.9 µM | HOP-62 28.7 µM | K562 16 µM | KM12 33.8 µM | NCI-H23 29 µM | NCI-H460 34.2 µM | NCI-H522 7.83 µM | OVCAR-4 21.1 µM | SK-MEL-28 43.4 µM | SNB-19 91.6 µM | TK-10 26.3 µM | U-251 35.7 µM

CCOC(=O)[C@H](CCCNC(=O)OC(C)(C)C)NCc1ccc(OC)c(OC)c1
inactive: A498 > 100 µM | A549 > 100 µM | CAKI-1 > 100 µM | CCRF-CEM > 100 µM | HOP-62 > 100 µM | K562 > 100 µM | KM12 > 100 µM | NCI-H23 > 100 µM | NCI-H522 > 100 µM | OVCAR-4 > 100 µM | SK-MEL-28 > 100 µM | SNB-19 > 100 µM | TK-10 > 100 µM | U-251 > 100 µM

CCCCc1c2c(nc3c1CCC/C3=C\c1ccccc1)/C(=C/c1ccccc1)CCC2
inactive: A549 > 100 µM | CCRF-CEM > 100 µM | HOP-62 > 100 µM | K562 > 100 µM | KM12 > 100 µM | NCI-H23 > 100 µM | NCI-H460 > 100 µM | NCI-H522 > 100 µM | RPMI-8226 > 100 µM | SK-MEL-28 > 100 µM | SNB-19 > 100 µM | TK-10 > 100 µM | U-251 > 100 µM

N#CC(NNC(=O)Cc1ccccc1)c1ccc(O)cc1 (centres undefined)
inactive: A549 > 100 µM | CAKI-1 > 100 µM | CCRF-CEM > 100 µM | HOP-62 > 100 µM | K562 > 100 µM | KM12 > 100 µM | NCI-H23 > 100 µM | NCI-H460 > 100 µM | NCI-H522 > 100 µM | OVCAR-4 > 100 µM | RPMI-8226 > 100 µM | SK-MEL-28 > 100 µM | TK-10 > 100 µM | U-251 > 100 µM

C#CCN(C(=O)C(F)(F)F)c1ccc(C(=O)c2ccc(N(CC#C)C(=O)C(F)(F)F)cc2)cc1
inactive: A549 84.9 µM | CCRF-CEM 25.1 µM | HOP-62 48.2 µM | K562 21 µM | KM12 32.2 µM | NCI-H23 23.2 µM | NCI-H460 33.8 µM | NCI-H522 14.9 µM | OVCAR-4 28.7 µM | RPMI-8226 15.6 µM | SK-MEL-28 35.3 µM | SNB-19 46.5 µM | TK-10 48.6 µM | U-251 31.6 µM

C[Si](C)(C)C(CCCCSc1ccccc1)(Sc1ccccc1)Sc1ccccc1
inactive: A498 > 100 µM | A549 > 100 µM | CAKI-1 > 100 µM | CCRF-CEM > 100 µM | K562 > 100 µM | KM12 > 100 µM | NCI-H23 68.1 µM | NCI-H460 > 100 µM | OVCAR-4 > 100 µM | RPMI-8226 > 100 µM | SK-MEL-28 > 100 µM | SNB-19 > 100 µM | TK-10 > 100 µM | U-251 85.5 µM

O=c1cnn2c(n1)sc1ccc3ccccc3c12
inactive: A549 65.6 µM | CAKI-1 > 100 µM | CCRF-CEM 63.5 µM | HOP-62 98.9 µM | K562 > 100 µM | KM12 > 100 µM | NCI-H23 > 100 µM | NCI-H460 61.2 µM | OVCAR-4 > 100 µM | RPMI-8226 > 100 µM | SK-MEL-28 > 100 µM | SNB-19 > 100 µM | TK-10 > 100 µM | U-251 > 100 µM

COC(=O)/C(C)=C(/CCC1(C)OCCO1)O[Si](C)(C)C
inactive: A549 > 100 µM | CAKI-1 > 100 µM | CCRF-CEM > 100 µM | HOP-62 > 100 µM | K562 > 100 µM | KM12 > 100 µM | NCI-H23 > 100 µM | NCI-H460 47.1 µM | OVCAR-4 > 100 µM | RPMI-8226 > 100 µM | SNB-19 > 100 µM | TK-10 > 100 µM | U-251 > 100 µM
